The source of these data is US5750540A, “1,4-di-substituted piperidine derivatives” (Banyu Pharmaceutical Co., Ltd., priority 1995, dated 1998).

One assay deals with T1, bladder M3 receptors (Rattus norvegicus, UniProt P08483).
T1 construct: the bladder was excised; from tissue; host or cells: isolated rat bladder
The assay is described as follows: Antagonism against bladder M3 receptors in an isolated rat bladder. Conditions: in vitro, agonist carbachol. The method, then: 5) Tests for antagonism against the bladder M3 receptors in an isolated rat bladder
These tests were performed according to an ordinary method. A male SD strain rat (weighing 200-400 g) was killed by exsanguination, and the bladder was excised. This bladder axially cut into eight parts to make bladder preparations. A preparation was suspended in a Magnus tube filled with 5 ml of Krebs-Henseleit nutrient solution (gassed with 95% O2 -5% CO2 and kept at 32° C.) with an initial tension of 0.5 g. The tension of the preparation was recorded isometrically. After being equilibrated for an hour, the preparation was made to contract twice by treatment with 10^-4 M carbachol, and the second contraction induced by carbachol was used as the reference contraction. After the preparation was washed with fresh solution to make a return to the base line, a test compound was administered thereto (or no treatment was made). Ten minutes later, carbachol (10^-8 to 10^-3 M) was cumulatively administered from the lower-most concentration in three-fold increasing doses to obtain a dose-response curve. The dose-response curve was constructed by expressing responses as percentages based on the reference contraction of the preparation. The antagonistic potency (KB value) of the test compound was determined from the degree of shift of the dose-response curve obtained by treatment with the test compound.

The next assay concerns the target muscarinic M3 receptor (Rattus norvegicus, UniProt P08483). Description: Intestinal propulsion in rats (charcoal meal). The assay is classed as in vivo. More on the design: from tissue. Conditions: i.v., 15% inhibition of intestinal propulsion. The protocol:
Tests for antagonism against muscarinic M3 receptor (in vivo)
5) Tests for intestinal propulsion in rats
Five- to seven-weeks-old male rats of the Sprague-Dawley strain were fasted overnight. A test compound was administered intravenously to the animals. Five minutes later, 1 ml per animal of a 5% charcoal suspension was administered orally. Thirty minutes after administration of the charcoal meal, the rats were sacrificed by decapitation, and the gastrointestinal tract was removed. The distance from the pylorus to the point of arrival of the charcoal meal was measured and the transportation rate was calculated. The ID15 value was calculated from the dose-response curve using probit analysis and defined as the drug dose that inhibited intestinal propulsion in the control group by 15%.

The test system of assay [1] is M1 receptors (vas deferens). Description: Antagonism against M1 receptors in an isolated rabbit vas deferens. Particulars: in vitro, agonist McN A-343, 10 min. The method, then:
1) Tests for antagonism against the M1 receptors in an isolated rabbit vas deferens
These tests were performed according to an ordinary method. A male Japanese albino rabbit (weighing bout 3 kg) was killed by exsanguination from a femoral artery under anesthesia with pentobarbital, and the vasa deferentia were excised. Portions (1 cm long) thereof adjacent to the prostate were used as vas deferens preparations. A preparation was longitudinally suspended in a Magnus tube filled with 20 ml of Krebs-Henseleit nutrient solution [gassed with 95% O2 -5% CO2 and kept at 32° C.; containing […] yohimbine (a2 antagonist)] with an initial tension of 1.0 g. The tension of the preparation was recorded isometrically. After the preparation was equilibrated for 30 minutes, electrical stimuli (0.5 ms, 30 V) were applied thereto by means of a bipolar electrode to induce contractions at intervals of 20 seconds. […] Responses to McN A-343 were expressed as percentages based on the amount of contraction before administration of McN A-343. The antagonistic potency (KB value) of the test compound was determined from the degree of shift of the dose-response curve obtained by treatment with the test compound.

Assay [2] addresses T2, M2 receptors (right atrium) (Rattus norvegicus, UniProt P10980).
T2 construct: the right atrium was excised; from tissue; host or cells: isolated rat right atrium
T2 sequence (P10980 1-466): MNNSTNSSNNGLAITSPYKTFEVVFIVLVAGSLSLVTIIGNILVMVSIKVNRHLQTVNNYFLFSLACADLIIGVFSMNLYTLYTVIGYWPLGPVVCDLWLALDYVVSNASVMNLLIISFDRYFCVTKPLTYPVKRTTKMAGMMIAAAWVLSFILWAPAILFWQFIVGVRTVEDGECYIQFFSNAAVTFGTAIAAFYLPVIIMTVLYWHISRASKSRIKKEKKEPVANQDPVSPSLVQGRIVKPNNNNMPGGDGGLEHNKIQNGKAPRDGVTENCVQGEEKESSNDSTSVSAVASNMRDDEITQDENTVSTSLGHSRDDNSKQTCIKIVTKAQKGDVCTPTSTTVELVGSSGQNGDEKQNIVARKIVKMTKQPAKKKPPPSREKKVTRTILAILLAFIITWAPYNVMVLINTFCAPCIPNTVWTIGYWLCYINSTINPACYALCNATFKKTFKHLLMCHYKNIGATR
Description: Antagonism against M2 receptors in an isolated rat right atrium. Conditions: in vitro, agonist carbachol. The method, then:
2) Tests for antagonism against the M2 receptors in an isolated rat right atrium
These tests were performed according to an ordinary method. A male SD strain rat (weighing 300-500 g) was killed by exsanguination, and the right atrium was excised. This preparation was isometrically suspended in a Magnus tube filled with 20 ml of Krebs-Henseleit nutrient solution (gassed with 95% O2 -5% CO2 and kept at 32° C.) with an initial tension of 0.5 g. The heart rate was recorded with a heart rate counter. After the preparation was equilibrated for 30 minutes, carbachol (10^-9 to 10^-6 M) was cumulatively administered from the lowermost concentration in three-fold increasing doses. Thus, a decrease in heart rate was measured to obtain a dose-response curve for the control experiment. After the preparation was washed with fresh solution to restore the heart rate, a test compound was administered thereto. Ten minutes later, carbachol was cumulatively administered again. Responses to carbachol were expressed as percentages based on the heart rate before administration of carbachol. The antagonistic potency (KB value) of the test compound (i.e., a compound in accordance with the present invention) was determined from the degree of shift of the dose-response curve obtained by treatment with the test compound.

Usually Kb stands for the affinity of an antagonist, worked out from how it opposes an agonist. A low value points to higher antagonist affinity.

Sequence of muscarinic M3 receptor (P08483 whole entry): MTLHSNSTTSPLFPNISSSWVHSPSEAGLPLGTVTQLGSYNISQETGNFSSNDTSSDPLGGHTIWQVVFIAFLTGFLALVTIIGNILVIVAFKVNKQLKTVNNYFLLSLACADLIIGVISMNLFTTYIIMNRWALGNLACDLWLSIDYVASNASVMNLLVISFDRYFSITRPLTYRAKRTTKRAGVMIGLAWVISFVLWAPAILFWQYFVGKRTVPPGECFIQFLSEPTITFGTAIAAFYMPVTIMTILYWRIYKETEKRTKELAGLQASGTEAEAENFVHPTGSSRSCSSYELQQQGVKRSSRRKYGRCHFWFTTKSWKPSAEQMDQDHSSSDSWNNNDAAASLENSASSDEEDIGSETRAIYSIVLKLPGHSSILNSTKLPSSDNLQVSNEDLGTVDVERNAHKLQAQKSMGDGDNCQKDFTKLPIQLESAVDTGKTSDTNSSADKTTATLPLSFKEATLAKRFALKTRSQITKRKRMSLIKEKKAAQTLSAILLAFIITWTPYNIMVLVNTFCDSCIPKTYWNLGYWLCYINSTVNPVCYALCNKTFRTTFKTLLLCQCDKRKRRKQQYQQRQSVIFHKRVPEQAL
T1 sequence (P08483 whole entry): as above

Turning to `CC(C)=CCCN1CCC(NC(=O)C(O)(c2ccccc2)C2CCC2)CC1` (stereo not shown) [Example 1, N-[1-(4-methyl-3-pentenyl)-piperidin-4-yl]-2-cyclobutyl-2-hydroxy-2-phenylacetamide], the Kb at bladder M3 receptors was 31 nM; in assay [1], 120 nM; in assay [2], 1500 nM. Moreover, the “Enterokinesis ID15” value on muscarinic M3 receptor worked out at 0.67 mg/kg i.v.
